Columns and labels:
[1] = human
[2] = human; remark: listed apart in the source
[3] = human; remark: listed apart in the source
[4] = human; remark: listed apart in the source
[5] = human, serum
[6] = human; remark: listed apart in the source
[7] = human; remark: listed apart in the source
[8] = Times to onset, minimal and maximal, observed in the indexed observations. [column 'DELAI' in source]; settings: human
[9] = human; remark: listed apart in the source
[10] = Highest frequency of moderate liver toxicity observed during clinical trials, expressed as a percentage. [column '% BIOL' in source]; settings: human
[11] = human, serum; remark: listed apart in the source
[12] = human, serum, 4383 h
[13] = human; remark: listed apart in the source
[14] = Highest frequency of acute liver toxicity observed during clinical trials, expressed as a percentage. [column '% AIGUE' in source]; settings: human
[15] = human; remark: listed apart in the source
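Throughout, for Hepatotoxicity (association with vascular disease): count of indexed literature references reporting vascular liver injury in humans, e.g. peliosis hepatitis, hepatic veno-occlusive disease or Budd-Chiari syndrome.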
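Throughout, for Hepatotoxicity (benign tumour): value is a count of indexed literature references citing a benign tumour confirmed by histopathology.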
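Throughout, for Hepatotoxicity (choleostasis): human cholestatic liver injury, shown by histopathology or by peak ALT or AST elevation over alkaline phosphatase ratio below 2, value counts indexed literature reports.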
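Throughout, for Hepatotoxicity (chronic liver disease): chronic liver injury confirmed by histopathology or persistently raised serum aminotransferase activity beyond 6 months, value given as the count of indexed literature references.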
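Throughout, for Hepatotoxicity (cirrhosis): value is a count of indexed literature references reporting cirrhosis confirmed by histopathology.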
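Throughout, for Hepatotoxicity (cytolytic): human cytolytic liver injury, shown by histopathology or by a ratio above 5 of peak ALT or AST elevation to alkaline phosphatase elevation, value counts indexed references.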
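Throughout, for Hepatotoxicity (granulomatous hepatitis): value is a count of indexed literature references reporting granulomatous liver disease confirmed by histopathology.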
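Throughout, for Hepatotoxicity (malignant tumour): malignant tumour confirmed by histopathology, value gives the count of indexed literature references reporting it.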
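Throughout, for Hepatotoxicity (severe hepatitis): human clinical data: severe hepatitis, meaning potentially life-threatening liver failure or clinically observed cases, the value counts how many indexed literature references report it.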
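Throughout, for Hepatotoxicity (steatosis): steatosis confirmed by histopathology, value is the count of indexed references.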

Compound | Hepatotoxicity (granulomatous hepatitis) [1] | Hepatotoxicity (cirrhosis) [2] | Hepatotoxicity (severe hepatitis) [3] | Hepatotoxicity (choleostasis) [4] | Hepatotoxicity (moderate) [5] | Hepatotoxicity (malignant tumour) [6] | Hepatotoxicity (benign tumour) [7] | Hepatotoxicity (time to onset) [8] | Hepatotoxicity (cytolytic) [9] | Hepatotoxicity (moderate) [10] [%] | Hepatotoxicity (acute) [11] | Hepatotoxicity (chronic liver disease) [12] | Hepatotoxicity (association with vascular disease) [13] | Hepatotoxicity (acute) [14] [%] | Hepatotoxicity (steatosis) [15] | further results
CCN(CC)C(=O)C1(c2ccccc2)CC1CN (stereo not given) | 0 | 0 | 0 | 0 | 0 | 0 | 0 | 6 months | 1 | 0 | 1 | 0 | 0 | 0 | 0 | 
OCCN1CCN(CCCN2c3ccccc3Sc3ccc(Cl)cc32)CC1 [PERPHENAZINE] | 0 | 0 | 0 | 4 | 2 | 0 | 0 | 2 months | 1 | 23.4 | 5 | 0 | 0 | 0.3 | 0 | 
C[S+](CC[C@H](N)C(=O)[O-])C[C@H]1O[C@@H](n2cnc3c(N)ncnc32)[C@H](O)[C@@H]1O (stereo not given in full) [ADEMETIONINE] | 0 | 0 | 0 | 0 | 2 | 0 | 0 | 3 days | 1 | 5 | 1 | 0 | 0 | 0 | 0 | 
COc1ccccc1OCCNCC(O)COc1cccc2[nH]c3ccccc3c12 (stereo not given) [CARVEDILOL] | 0 | 0 |  | 1 | 0 | 0 | 0 | 6 months | 1 |  | 1 | 0 | 0 |  | 0 | Hepatotoxicity (severe hepatitis) ([3]; Liver): 0; Hepatotoxicity (moderate) ([10]; Liver): 0%; Hepatotoxicity (acute) ([14]; Liver): 0%
C[C@H](O)C(=O)Nc1c(I)c(C(=O)NC(CO)CO)c(I)c(C(=O)NC(CO)CO)c1I [IOPAMIDOL] | 0 | 0 | 1 | 0 | 0 | 0 | 0 | 0.021 days | 1 | 0 | 1 | 0 | 0 | 0 | 0 | 
CCCCCCCCCCC[C@@H](C[C@@H]1OC(=O)[C@H]1CCCCCC)OC(=O)[C@H](CC(C)C)NC=O [ORLISTAT] | 0 | 0 | 1 | 1 | 0 | 0 | 0 | 3 weeks - 1.5 months | 1 | 0 | 2 | 0 | 0 | 0 | 0 | 
CC(C)c1cccc(C(C)C)c1O [PROPOFOL] |  | 0 |  |  | 0 | 0 | 0 | 1 day - 4 weeks |  |  | 2 | 0 | 0 |  | 0 | Hepatotoxicity (granulomatous hepatitis) ([1]; Liver): 0; Hepatotoxicity (severe hepatitis) ([3]; Liver): 0; Hepatotoxicity (choleostasis) ([4]; Liver): 1; Hepatotoxicity (cytolytic) ([9]; Liver): 1; Hepatotoxicity (moderate) ([10]; Liver): 0%; Hepatotoxicity (acute) ([14]; Liver): 0%
CC1(C)O[C@@H]2[C@@H](CO[C@@]3(COS(N)(=O)=O)OC(C)(C)O[C@@H]23)O1 [TOPIRAMATE] | 0 | 0 | 1 | 0 | 1 | 0 | 0 | 2 months - 4 months | 2 | 23 | 2 | 0 | 0 | 0 | 0 | 
CN1CCN(C(=S)Nc2ccc(Nc3ccc([N+](=O)[O-])cc3)cc2)CC1 [AMOCARZINE] | 0 | 0 | 0 | 0 | 1 | 0 | 0 | 4 days - 2 months | 0 | 0 | 0 | 0 | 0 | 0 | 0 | 
C=C1c2cccc(O)c2C(=O)C2=C(O)[C@]3(O)C(=O)C(C(N)=O)=C(O)[C@@H](N(C)C)[C@@H]3[C@@H](O)[C@H]12 [METHACYCLINE] | 0 | 0 | 0 | 0 | 0 | 0 | 0 | 7 months - 1 year | 1 | 0 | 1 | 0 | 0 | 0 | 0 | 
COc1ccc2c(c1)c(CC(=O)OCC(=O)O)c(C)n2C(=O)c1ccc(Cl)cc1 [ACEMETACIN] | 0 | 0 | 0 | 1 | 0 | 0 | 0 | 12 weeks | 0 | 0 | 1 | 0 | 0 | 0 | 0 | 
CC(Cc1ccccc1)NCc1ccccc1Cl (stereo not given) [CLOBENZOREX] | 0 | 0 | 0 | 0 | 0 | 0 | 0 | 2 weeks | 1 | 0 | 1 | 0 | 0 | 0 | 0 | 
COc1cc(C(=O)NCc2ccc(OCCN(C)C)cc2)cc(OC)c1OC [TRIMETHOBENZAMIDE] | 0 | 0 | 0 | 1 | 0 | 0 | 0 | 5 days | 2 | 0 | 2 | 0 | 0 | 0 | 0 | 
OCCOCCN1CCN(C2=Nc3ccccc3Sc3ccccc32)CC1 [QUETIAPINE] |  | 0 |  |  | 3 | 0 | 0 | 1 week - 3 weeks |  |  | 1 | 0 | 0 |  | 0 | Hepatotoxicity (granulomatous hepatitis) ([1]; Liver): 0; Hepatotoxicity (severe hepatitis) ([3]; Liver): 0; Hepatotoxicity (choleostasis) ([4]; Liver): 0; Hepatotoxicity (cytolytic) ([9]; Liver): 1; Hepatotoxicity (moderate) ([10]; Liver): 14.8%; Hepatotoxicity (acute) ([14]; Liver): 1.9%

— ChEMBL document CHEMBL3137667, “[Drug-induced liver injury; fourteenth updated edition of the bibliographic database of liver injuries and related drugs]” (Gastroenterol Clin Biol, 2004)
